This is an account of results in US20030211941A1, “Methods for identifying signalling molecules” (priority 2002, published 2003).

Non-standard residues stand in square brackets, D forms with d. Hyp = O=C(O)[C@@H]1C[C@@H](O)CN1

Assay [1] deals with tobacco suspension cell cultures. Put plainly: Alkalinization assay (tobacco cell suspension cultures). The note with it: for Alkalinization of tobacco suspension cell cultures (in words): tobacco suspension cells; for EC50: 2 ml tobacco suspension cells, read-out: Concentrations for 1/2 maximal activity in Alkalinization Assays (Tobacco Cell Suspension Cultures). In kind it is cell-based, N. tabacum. The procedure: Column fractions were assayed using suspension-cultured tobacco cells as follows. An aliquot of cells (usually 1 to 2 ml) were placed in the wells of culture plates, then aliquots from each column fraction (1 to 10 μL) were placed in each well of the culture plates. The cells in the plates were agitated by a circular motion of the rotary shaker on which they sat. The pH was then monitored over time and the change in pH at various times was plotted versus fraction number.
The two active peaks were solubilized in 1 ml 0.1% TFA each and injected into a narrow bore reversed-phase C18 column (Vydac, Column 218TP52, 2.1 by 250 mm, 5 μm beads, 300 angstrom pores). Solvent A consisted of 0.1% TFA in water, and solvent B was 0.05% TFA in methanol. Samples were injected in solvent A, and after 2 minutes, a 90 minute gradient from 0% solvent B to 30% solvent B was applied. The flow rate was 0.25 ml/min and the fractions (0.25 ml) were monitored at 214 nm and 2 μl were assayed for their alkalinization activity in tobacco cell cultures. The elution and alkalinization profiles for peak I activity are shown in FIG. 3A and FIG. 3B, respectively. The elution and alkalinization profile for peak II activity are shown in FIG. 4A and FIG. 4B, respectively.
The cells can be maintained in 125 mL Ehrlenmeyer flasks on an orbital shaker (160 rpm) under constant light. Three milliliters of cells are subcultured every seven days into 45 mL of sterile media (unbuffered, pH 5.5 adjusted with 0.1 M KOH) containing 3% sucrose, 4.3 g/L Murashige and Skoog salt mixture, 5 mg/L 1-napthylacetic acid, 2 mg/L 6-benzylaminopurine, 110 mg/L Nitsch and Nitsch vitamin powder, 1 mg/L thiamine, 100 mg/L myo-inositol and 1 mM EDTA. Cells can be used for alkalinization assays from 4 to 8 days after subculturing.

Assay [2] deals with tobacco proteinase inhibitor protein. The assay can be described thus: Proteinase inhibitor inducing assay (tobacco leaves; supplied to young tobacco plants through cut stems). It counts as in vivo. The following applies: for Induction of tobacco proteinase inhibitor protein (in words): tobacco plants; for Concentrations for 1/2 maximal activity in Proteinase Inhibitor Inducing Assays (Tobacco Leaves): young tobacco plants, supplied through cut stems. The procedure:
The purified polypeptides were sequenced and named tobacco systemin I (peak I activity) (SEQ ID NO: 1) and tobacco systemin II (peak II activity) (SEQ ID NO: 2). Both are polypeptides of 18 amino acids and both are glycosylated. Using mild acid hydrolysis, the carbohydrates were removed, and the masses of both tobacco systemin I (SEQ ID NO: 1) and tobacco systemin II (SEQ ID NO: 2) were analyzed before and after acid hydrolysis using a MALDI-MS. The amino acid sequence of tobacco systemin I is NH2-RGANLPXXSXASSXXSKE-COO. (SEQ ID NO:1). The amino acid sequence of tobacco systemin II is NH2-NRKPLSXXSXKPADGQRP-COO (SEQ ID NO:2). The one letter abbreviation “X” represents hydroxyproline. The masses after acid hydrolysis exactly matched the masses obtained by sequence analysis. […] The potency of the tobacco systemins was similar to that found for tomato systemin (disclosed in U.S. Pat. No. 5,378,819) in its alkalinization response in tomato cell suspension cultures and in inducing proteinase inhibitors in leaves of excised tomato plants (Table 1).

The subject of assay [3] is MAP kinase protein. The assay can be described thus: MAP kinase assay in tobacco leaf extracts. In kind it is biochemical. From the text: The ability of tobacco systemin I (SEQ ID NO: 1), tobacco systemin II (SEQ ID NO: 2) and the 5 kDa polypeptide, described in Example 2 herein, to stimulate the phosphorylation of a MAP kinase protein in tobacco leaf extracts was investigated. The MAP kinase assay utilized was essentially as described in Stratmann, J. W. and Ryan, C. A., Proc. Nat'l. Acad. Sci. U.S.A. 94:11085-11089 (1997), which publication is incorporated herein by reference.

On to “tomato systemin (AVQSKPPSKRDPPKMQTD; Systemin; UniProt P27058 179-196, looked up) [tomato systemin disclosed in U.S. Pat. No. 5,378,819, reference compound]”, for which the “Alkalinization of tobacco suspension cell cultures (in words)” value (“Alkalinization” below) in assay [1] is “does not cause alkalinization”.
In the case of “18 amino acid glycosylated polypeptide from tobacco, NH2-RGANLPXXSXASSXXSKE-COO (X = hydroxyproline), 9 pentose units (H-RGANLP[Hyp][Hyp]S[Hyp]ASS[Hyp][Hyp]SKE-OH; also: 9 pentose units glycosylation, places not given here) [Tob Sys I, tobacco systemin I]”, in assay [2], the “Induction of tobacco proteinase inhibitor protein (in words)” value was “active at low picomole levels” and the “Concentrations for 1/2 maximal activity in Proteinase Inhibitor Inducing Assays (Tobacco Leaves)” value is “˜200 fmol/plant”. For the same substance, in assay [1], the EC50 was around 0.25 nM and the “Alkalinization” value is “active at low picomole levels”.
On to “18 amino acid glycosylated polypeptide from tobacco, NH2-NRKPLSXXSXKPADGQRP-COO (X = hydroxyproline), 6 pentose units (H-NRKPLS[Hyp][Hyp]S[Hyp]KPADGQRP-OH; also: 6 pentose units glycosylation, places not given here) [Tob Sys II, tobacco systemin II]”, for which, in assay [2], the “Induction of tobacco proteinase inhibitor protein (in words)” value is recorded as “active at low picomole levels” and the “Concentrations for 1/2 maximal activity in Proteinase Inhibitor Inducing Assays (Tobacco Leaves)” value is “˜200 fmol/plant”. For the same substance, in assay [1], the EC50 is around 0.25 nM and the “Alkalinization” value is on record as “active at low picomole levels”. For the same substance, in assay [3], the “MAP kinase stimulating activity (in words)” value is “possess MAP kinase stimulating activity”.
